Results on one molecule are retold here after patent US8906901B2, “Administration of dipeptidyl peptidase inhibitors” (priority 2005, dated 2014).

In the experiment the test system is db/db (BKS.Cg—+Lepr^db/+Lepr^db) mice. Description: Plasma glucose after 21 days of administration in powder chow, alone or with pioglitazone. In kind it is in vivo. To be noted: male db/db mice, 21 days in chow, fed condition; 0.03% (w/w) succinate salt of Compound I and/or 0.0075% (w/w) pioglitazone hydrochloride; mean (n=7) ± SD. The text has this: Male db/db (BKS.Cg—+Lepr^db/+Lepr^db) mice (6 weeks of age, CLEA Japan (Tokyo, Japan)) were divided into 4 groups (n=7 in each group) comprising Group A to Group D. Group A had free access to CE-2 powder chow (CLEA Japan) for 21 days. […] During 21 days of administration of the powder chow, there were not significant differences in the administration amount of the powder chow in the above 4 groups. After 21 days of administration of the powder chow, blood samples were taken from the orbital veins of the mice by capillary pipette under feeding condition, and plasma glucose levels were enzymatically measured by using Autoanalyzer 7080 (Hitachi, Japan). The values in the table means average (n=7)±standard deviation.

Take `Cn1c(=O)cc(N2CCC[C@@H](N)C2)n(Cc2cc(F)ccc2C#N)c1=O` [Compound I, 2-[6-(3-Amino-piperidin-1-yl)-3-methyl-2,4-dioxo-3,4-dihydro-2H-pyrimidin-1-ylmethyl]-4-fluoro-benzonitrile]: the “Plasma Glucose” value came to 410.3 ± 47.9 mg/dL.
